Source: US20070161513A1, “3-[1-halo-1-arylmethanesulfonyl]- and 3-[1-halo-1-heteroarylmethanesulfonyl]- isoxazoline derivatives, processes for preparing them, and use as herbicides and plant growth regulators” (Bayer CropScience GmbH, priority 2005, published 2007)

What was measured:
[1] = tested on: weed plants such as Avena spp., Lolium multiflorum, Stellaria media, Setaria spp., Sinapis alba and Amaranthus retroflexus; experiment: Pre-emergence herbicidal activity (pot test under glass); format: in vivo; conditions: applied pre-emergence at a rate of 2 kg or less of active substance per hectare; WP formulation; visual scoring after 3 weeks vs untreated controls
Source text: 1. Pre-Emergence Herbicidal Activity Seeds of monocot and dicot weed and crop plants are planted out in sandy loam soil in wood fiber pots and covered with soil. The test compounds, formulated as wettable powders (WP), are then applied to the surface of the soil cover, in the form of an aqueous suspension, at a water application rate of 600 I/ha (converted), in various dosages, with the addition of 0.2% of wetting agent. After the treatment, the pots are set up under glass and held under good growth conditions for the test plants. Visual scoring of the emergence damage to the trial plants is made after a trial period of 3 weeks in comparison with untreated controls (herbicidal activity in percent (%): 100% activity=plants have died, 0% activity=like control plants).

[2] = tested on: weed plants such as Sinapis alba, Echinochloa crus-galli, Cyperus iria, Avena spp., Stellaria media, Setaria spp., and Amaranthus retroflexus; experiment: Post-emergence herbicidal activity (pot test under glass); format: in vivo; conditions: applied post-emergence (one-leaf stage) at a rate of 2 kg or less of active substance per hectare; WP formulation; visual scoring after about 3 weeks vs untreated controls
Protocol: 2. Post-Emergence Herbicidal Activity Seeds of monocot and dicot weed and crop plants are planted out in sandy loam soil in wood fiber pots, covered with soil, and cultivated under glass under good growth conditions. Two-three weeks after sowing, the trial plants are treated at the one-leaf stage. The test compounds, formulated as wettable powders (WP), are then sprayed onto the green parts of the plants, at a water application rate of 600 I/ha (converted), in various dosages, with the addition of 0.2% of wetting agent. After the trial plants have stood for about 3 weeks under glass under optimum growth conditions, the effect of the products is scored visually in comparison with untreated controls. (herbicidal activity in percent (%): 100% activity=plants have died, 0% activity=like control plants).

Row | SMILES | herbicidal activity against weed plants, pre-emergence [1] | herbicidal activity against weed plants, post-emergence [2]
1 | CC1(C)CC([S+]([O-])C(Cl)c2c(F)cccc2Cl)=NO1 (stereo not drawn) [III-5.1, 3-{[Chloro(2-chloro-6-fluorophenyl)methyl]sulfinyl}-5,5-dimethyl-4,5-dihydroisoxazole] | very good herbicidal activity | very good herbicidal activity
2 | CC1(C)CC(S(=O)(=O)C(Cl)c2ccccc2)=NO1 (stereo not drawn) [Compound I-1.1, 3-{[Chloro(phenyl)methyl]sulfonyl}-5,5-dimethyl-4,5-dihydroisoxazole] | very good herbicidal activity | very good herbicidal activity
3 | CC1(C)CC([S+]([O-])C(Cl)c2ccccc2)=NO1 (stereo not drawn) [III-1.1] | very good herbicidal activity | very good herbicidal activity
